Reference: PubChem BioAssay (NCI)
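Compound exposure: 48 hours, 5 concentrations, 96-well plates. At the TGI there is no net growth.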

Legend:
Experiment in all cases: inhibition of tumour cell growth, NCI panel, 48 h
SNB-75 CNS = system: SNB-75 CNS
NCI/ADR-RES ovarian = system: NCI/ADR-RES ovarian
OVCAR-5 ovarian = system: OVCAR-5 ovarian
HL-60(TB) leukemia = system: HL-60(TB) leukemia
SN12C renal = system: SN12C renal
K-562 leukemia = system: K-562 leukemia
HCT-15 colon = system: HCT-15 colon
OVCAR-4 ovarian = system: OVCAR-4 ovarian
A549 NSCLC = system: A549 NSCLC
T-47D breast = system: T-47D breast
SW-620 colon = system: SW-620 colon
HS 578T breast = system: HS 578T breast
UACC-62 melanoma = system: UACC-62 melanoma
EKVX NSCLC = system: EKVX NSCLC
BT-549 breast = system: BT-549 breast
OVCAR-8 ovarian = system: OVCAR-8 ovarian
DU-145 prostate = system: DU-145 prostate
RPMI-8226 leukemia = system: RPMI-8226 leukemia
M14 melanoma = system: M14 melanoma
UACC-257 melanoma = system: UACC-257 melanoma
SK-MEL-2 melanoma = system: SK-MEL-2 melanoma
NCI-H226 lung = system: NCI-H226 lung
PC-3 prostate = system: PC-3 prostate
MALME-3M melanoma = system: MALME-3M melanoma
MDA-N = system: MDA-N
OVCAR-3 ovarian = system: OVCAR-3 ovarian
RXF 393 renal = system: RXF 393 renal
A498 renal = system: A498 renal
786-0 renal = system: 786-0 renal
U251 CNS = system: U251 CNS
SNB-19 CNS = system: SNB-19 CNS
MOLT-4 leukemia = system: MOLT-4 leukemia
HCC-2998 colon = system: HCC-2998 colon
CCRF-CEM leukemia = system: CCRF-CEM leukemia
IGROV1 ovarian = system: IGROV1 ovarian
ACHN renal = system: ACHN renal
COLO 205 colon = system: COLO 205 colon
UO-31 renal = system: UO-31 renal
HOP-92 NSCLC = system: HOP-92 NSCLC
MDA-MB-231 breast = system: MDA-MB-231 breast
SF-295 CNS = system: SF-295 CNS
NCI-H23 lung = system: NCI-H23 lung
SF-539 CNS = system: SF-539 CNS
MCF7 breast = system: MCF7 breast
HCT-116 colon = system: HCT-116 colon
SK-MEL-28 melanoma = system: SK-MEL-28 melanoma
MDA-MB-435 = system: MDA-MB-435
SF-268 CNS = system: SF-268 CNS
CAKI-1 renal = system: CAKI-1 renal
SR leukemia = system: SR leukemia
HT29 colon = system: HT29 colon
KM12 colon = system: KM12 colon
SK-MEL-5 melanoma = system: SK-MEL-5 melanoma
NCI-H460 lung = system: NCI-H460 lung
TK-10 renal = system: TK-10 renal
SK-OV-3 ovarian = system: SK-OV-3 ovarian
NCI-H522 lung = system: NCI-H522 lung
HOP-62 NSCLC = system: HOP-62 NSCLC
LOX IMVI melanoma = system: LOX IMVI melanoma

## COC(=O)CC(=O)Nc1sccc1S(=O)(=O)c1ccccc1
SNB-75 CNS
  TGI: > 100 µM
NCI/ADR-RES ovarian
  TGI: > 100 µM
OVCAR-5 ovarian
  TGI: > 100 µM
HL-60(TB) leukemia
  TGI: > 100 µM
SN12C renal
  TGI: > 100 µM
K-562 leukemia
  TGI: > 100 µM
HCT-15 colon
  TGI: > 100 µM
OVCAR-4 ovarian
  TGI: > 100 µM
A549 NSCLC
  TGI: > 100 µM
T-47D breast
  TGI: > 100 µM
SW-620 colon
  TGI: > 100 µM
HS 578T breast
  TGI: > 100 µM
UACC-62 melanoma
  TGI: > 100 µM
EKVX NSCLC
  TGI: > 100 µM
BT-549 breast
  TGI: > 100 µM
OVCAR-8 ovarian
  TGI: > 100 µM
DU-145 prostate
  TGI: > 100 µM
RPMI-8226 leukemia
  TGI: > 100 µM
M14 melanoma
  TGI: > 100 µM
UACC-257 melanoma
  TGI: > 100 µM
SK-MEL-2 melanoma
  TGI: > 100 µM
NCI-H226 lung
  TGI: 95 µM
PC-3 prostate
  TGI: > 100 µM
MALME-3M melanoma
  TGI: > 100 µM
MDA-N
  TGI: > 100 µM
OVCAR-3 ovarian
  TGI: 43.5 µM
RXF 393 renal
  TGI: > 100 µM
A498 renal
  TGI: > 100 µM
786-0 renal
  TGI: > 100 µM
U251 CNS
  TGI: > 100 µM
SNB-19 CNS
  TGI: > 100 µM
MOLT-4 leukemia
  TGI: > 100 µM
HCC-2998 colon
  TGI: 41.6 µM
CCRF-CEM leukemia
  TGI: > 100 µM
IGROV1 ovarian
  TGI: > 100 µM
ACHN renal
  TGI: > 100 µM
COLO 205 colon
  TGI: > 100 µM
UO-31 renal
  TGI: > 100 µM
HOP-92 NSCLC
  TGI: > 100 µM
MDA-MB-231 breast
  TGI: > 100 µM
SF-295 CNS
  TGI: > 100 µM
NCI-H23 lung
  TGI: > 100 µM
SF-539 CNS
  TGI: > 100 µM
MCF7 breast
  TGI: > 100 µM
HCT-116 colon
  TGI: > 100 µM
SK-MEL-28 melanoma
  TGI: > 100 µM
MDA-MB-435
  TGI: > 100 µM
SF-268 CNS
  TGI: > 100 µM
CAKI-1 renal
  TGI: > 100 µM
SR leukemia
  TGI: > 100 µM
HT29 colon
  TGI: > 100 µM
KM12 colon
  TGI: > 100 µM
SK-MEL-5 melanoma
  TGI: > 100 µM
NCI-H460 lung
  TGI: > 100 µM
TK-10 renal
  TGI: > 100 µM
SK-OV-3 ovarian
  TGI: > 100 µM
NCI-H522 lung
  TGI: > 100 µM

## NC(=S)N/N=C1\c2ccccc2CCC1CCC1(O)CCc2ccccc2C1=O (stereo not drawn)
SNB-75 CNS
  TGI: 45 µM
NCI/ADR-RES ovarian
  TGI: 79.1 µM
OVCAR-5 ovarian
  TGI: 74.2 µM
HL-60(TB) leukemia
  TGI: 20.6 µM
SN12C renal
  TGI: 39.8 µM
HCT-15 colon
  TGI: > 100 µM
OVCAR-4 ovarian
  TGI: > 100 µM
A549 NSCLC
  TGI: > 100 µM
T-47D breast
  TGI: 28.9 µM
SW-620 colon
  TGI: > 100 µM
HS 578T breast
  TGI: 63 µM
UACC-62 melanoma
  TGI: 31.7 µM
EKVX NSCLC
  TGI: 59.5 µM
BT-549 breast
  TGI: 31.6 µM
OVCAR-8 ovarian
  TGI: 35.1 µM
DU-145 prostate
  TGI: > 100 µM
RPMI-8226 leukemia
  TGI: 70.4 µM
M14 melanoma
  TGI: 38 µM
HOP-62 NSCLC
  TGI: > 100 µM
UACC-257 melanoma
  TGI: 33.3 µM
PC-3 prostate
  TGI: 88.7 µM
MALME-3M melanoma
  TGI: 36.7 µM
MDA-N
  TGI: 58.4 µM
OVCAR-3 ovarian
  TGI: 36.3 µM
RXF 393 renal
  TGI: 36.3 µM
U251 CNS
  TGI: > 100 µM
SNB-19 CNS
  TGI: > 100 µM
MOLT-4 leukemia
  TGI: 88.2 µM
CCRF-CEM leukemia
  TGI: 86 µM
IGROV1 ovarian
  TGI: > 100 µM
ACHN renal
  TGI: > 100 µM
COLO 205 colon
  TGI: 36.7 µM
UO-31 renal
  TGI: 29.4 µM
MDA-MB-231 breast
  TGI: > 100 µM
SF-295 CNS
  TGI: 59 µM
NCI-H23 lung
  TGI: 87 µM
SF-539 CNS
  TGI: 29.5 µM
LOX IMVI melanoma
  TGI: 44.3 µM
MCF7 breast
  TGI: 46.4 µM
HCT-116 colon
  TGI: 40.2 µM
SK-MEL-28 melanoma
  TGI: 45.8 µM
MDA-MB-435
  TGI: 46.4 µM
SF-268 CNS
  TGI: > 100 µM
CAKI-1 renal
  TGI: > 100 µM
SR leukemia
  TGI: > 100 µM
HT29 colon
  TGI: 45.9 µM
KM12 colon
  TGI: > 100 µM
SK-MEL-5 melanoma
  TGI: 28.3 µM
NCI-H460 lung
  TGI: 32.1 µM
TK-10 renal
  TGI: 54.3 µM
SK-OV-3 ovarian
  TGI: > 100 µM
